Assay results as given in patent US20250011738A1, “HEAT TOLERANT ALKALINE PHOSPHATASE” (BiomEdit, LLC, priority 2021, published 2025).
Read-outs that look alike come from different tables or passages of the source.

Target: T1, Paenibacillus lentus alkaline phosphatase AP1 heat tolerant mutant APHT (designated "HT"), 16 amino acid changes from AP1, SEQ ID NO: 1 (Paenibacillus lentus, UniProt A0A3Q8S6G4, A163G/A247P/A302M/D102S/D304A/F110I/G290A/K198N/K66I/L136H/S105A/S168N/S338G/S535E/T223N/V100I/Y117N)
T1 sequence (A0A3Q8S6G4 34-572 K66I/V100I/D102S/S105A/F110I/Y117N/L136H/A163G/S168N/K198N/T223N/A247P/G290A/A302M/D304A/S338G/S535E): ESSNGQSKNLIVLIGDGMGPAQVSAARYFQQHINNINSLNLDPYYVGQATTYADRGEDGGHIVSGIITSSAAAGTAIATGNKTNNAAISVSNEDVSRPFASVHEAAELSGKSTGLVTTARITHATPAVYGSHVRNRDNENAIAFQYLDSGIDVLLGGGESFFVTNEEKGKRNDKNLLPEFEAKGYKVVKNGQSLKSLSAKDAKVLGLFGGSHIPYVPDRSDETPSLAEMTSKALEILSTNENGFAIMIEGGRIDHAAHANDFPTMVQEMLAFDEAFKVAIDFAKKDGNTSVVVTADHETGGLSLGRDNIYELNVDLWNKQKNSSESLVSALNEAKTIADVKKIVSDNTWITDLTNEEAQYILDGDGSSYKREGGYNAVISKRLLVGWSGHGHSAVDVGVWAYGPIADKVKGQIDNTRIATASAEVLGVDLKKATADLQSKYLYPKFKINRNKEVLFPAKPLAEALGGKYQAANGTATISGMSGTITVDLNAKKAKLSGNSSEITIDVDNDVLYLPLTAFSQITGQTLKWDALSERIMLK
Format: biochemical
Description: FIG. 7 presents effect of pH on (A)Vmax (IU/mg) and (B) KM (μM) activity of AP1 (designated “Native”) and APHT (designated “HT”). Assays were performed at 40° C. with p-NPP as substrate in the concentration range 0-5 mM. The enzyme concentration was 2.5 μg/mL for the pH 8 and 0.4 mg/mL for pH 9-13).
FIG. 8 presents effect of pH on (A)Vmax (IU/mg) and (B) KM (μM) activity of AP1 (designated “Native”) and APHT (designated “HT”). Assays were performed at 50° C. with p-NPP as substrate in the concentration range 0-5 mM. The enzyme concentration was 2.5 μg/mL for the pH 8 and 0.4 mg/mL for pH 9-13).
To further improve the thermal stability, a set of synthetic alkaline phosphatase genes where each amino acid was mutated to other possibilities one at a time was constructed and evaluated. […] In FIG. 5A, the AP1 with a serine mutation is designated as “AP Native” and is depicted in sequence with a leader sequence […] (SEQ ID NO:13). The AP1 with leader sequence […] is provided in SEQ ID NO:14). The APHT polypeptide with leader sequence […] is provided in SEQ ID NO:15). In FIG. 5B, the AP1 with a serine mutation and without any leader sequence or leader peptide amino acids (SEQ ID NO:4) is aligned and compared with the APHT without any leader sequence or leader peptide amino acids (SEQ ID NO:1). The 16 amino acid changes in APHT are evident. The APHT amino acid sequence (excluding and without any leader sequence and starting with amino acids ESSN) is 97% identical to the sequence of AP1 (excluding and without any leader sequence and starting with amino acids ESSN).
The APHT sequence (SEQ ID NO: 1) is provided below with the amino acid mutations versus the AP1 sequence underlined and in bold.
• 1 M DEA Buffer pH 10. Dissolve 10.5 g of diethanolamine in to 100 ml of water. The pH adjust with 1 M hydrochloric acid or 1 M NaOH. Filter sterilize and store at 4 C. • 0.5 M Tris Base Buffer pH 10 and 8. Dissolve 6.06 g of Tris in to 100 ml of water. The pH adjust with 1 M hydrochloric acid or 1 M NaOH. Filter sterilize and store at 4 C. • 0.1 M Borate Buffer pH 11 and 12. Dissolve 0.62 g Boric acid, 0.44 g NaCl and Sodium tetraborate 0.95 g in 100 ml H2O. The pH adjust with 1 M hydrochloric acid or 1 M NaOH. Filter sterilize and store at 4 C. • 1 M KCl/NaOH Buffer pH 13. Dissolve 7.4 g KCl in 100 ml water. The pH adjust with 1 M NaOH. Filter sterilize and store at 4 C. • 1 M MgCl2, 23.8 g MgCl2 anhydrous in […] water. Filter sterilize and store at 4 C 3. Activity Assay: p-NPP Substrate
Reactions were carried out at 40° C. using 50 mM Tris buffer pH 7 with 50 mM MgCl2 and at 50° C. using 50 mM DEA buffer pH 10 with 50 mM MgCl2. Enzyme was thawed, aliquoted in 500 μL vials and freeze at −80° C. For 100 μL volume of reaction, components were mixed in 96-well microplate (Fisher 12565501) following the order in TABLE 1. Every reaction condition was done by triplicated at least.
After the adding enzyme, the absorption of product was followed at 405 nm over 5 min in a M5 plate reader with intervals of 20 s. Initial rate was determined for each curve and product formed calculated using the extinction coefficient of 18.5 mM^−1·cm^−1 and a calculated pathlength of 0.5 cm. Initial rates where fitted to Michalis Menten model built in the Kaleidagraph software.
pH effect on enzyme activity was tested at 40 and 50° C. in the corresponding buffer with 50 mM MgCl2 using p-NPP as substrate in the concentration range 0-5.0 mM. The reaction started with the addition of enzyme (2.5 μg/mL for pH 8 and 0.4 μg/mL for pH 9-13) and the absorption at 405 nm was followed for 5 min. Every reaction condition was done by triplicated at least.

Compound: O=[N+]([O-])c1ccc(OP(=O)(O)O)cc1 [p-NPP, p-nitrophenylphosphate]
- Km (40° C., Borate pH 11): 12200 µM
- Km (40° C., Borate pH 12): 498 µM
- Km (40° C., DEA pH 10): 2540 µM
- Km (40° C., Tris pH 8): 46 µM
- Km (40° C., Tris pH 9): 992 µM
- Km (50° C., Borate pH 11): 12200 µM
- Km (50° C., Borate pH 12): 1080 µM
- Km (50° C., DEA pH 10): 2540 µM
- Km (50° C., KCl/NaOH (pH printed 204; Table 2: 13.0)): 498 µM
- Km (50° C., Tris pH 8): 45 µM
- Km (50° C., Tris pH 9): 992 µM
